From publication PMC6050476, “Pre-clinical Pharmacokinetic and Metabolomic Analyses of Isorhapontigenin, a Dietary Resveratrol Derivative” (Frontiers in Pharmacology, 2018)

Experiments:
[1] = Body weight before and after 1-week ISO intervention; assay type: in vivo, Sprague-Dawley rats; conditions: 1-week daily oral ISO 100 μmol/kg, normal diet; p = 0.74 and 0.89
Method: (§1) Twenty-two rats were divided into four groups. Group 1 (n = 5) received a single bolus intravenous injection of ISO at the dose of 90 μmol/kg (23.2 mg/kg). Serial blood samples were collected before dosing and at 5, 15, 30, 60, 90, 120, 180, 240, 300, 420, 540, and 720 min after intravenous injection. Group 2 (n = 5) received a single oral administration of ISO at the dose of 200 μmol/kg (51.6 mg/kg). Serial blood samples were collected before dosing and at 15, 30, 45, 60, 90, 120, 180, 240, 300, 420, 540, and 720 min after oral gavage. Group 3 (n = 5) received daily oral pre-treatment of oral dosing vehicle (2 mL/kg) while Group 4 (n = 7) received daily oral pre-treatment of ISO at the dose of 100 μmol/kg (25.8 mg/kg) for 1 week. On day 7, ∼8–10 h after the last pre-treatment dose, surgery was performed on rats in Groups 3 and 4 for jugular vein cannulation, and blood samples were also collected from Groups 3 and 4 for metabolomic study. On day 8, the pharmacokinetic study was carried out on these two groups of animals at the dose of 100 μmol/kg (25.8 mg/kg) using the same blood sampling schedule as Group 2.
One-week daily oral dosing of ISO decreased plasma levels of some di-aminoacid and N-acetyl amino acids such as glycyl-glycine, N-acetyl-glycine, N-acetyl-glutamine, and N-acetyl-orthinine. […] In this study, the healthy Sprague-Dawley rats were fed with normal diet. […]

[2] = test system: plasma metabolites; assay: Plasma metabolomic profiling after 1-week isorhapontigenin intervention (GC–MS/MS); assay type: in vivo, Sprague-Dawley rats; conditions: 1-week daily oral ISO 100 μmol/kg vs vehicle, rat plasma
Method: as §1
The plasma samples collected from rats receiving 1-week daily oral dosing of ISO at 100 μmol/kg (25.8 mg/kg) were subjected to metabolomic study using the rats receiving vehicle as control.
Plasma samples (30 μL aliquots in Eppendorf tubes) were thawed to room temperature (25°C). Myristic-d27 acid (20 μL of 200 μg/mL solution in methanol, IS) and 200 μL of methanol were added to each sample. Samples were vortexed for 5 min at room temperature and centrifuged for 10 min at 15,000 g (4°C). The top 200 μL of each supernatant was transferred to a glass centrifuge tube and dried under nitrogen gas. The dried samples were re-suspended in 100 μL of toluene, vortexed vigorously for 10 s, and dried again under nitrogen. A two-step derivatization method was used for chemical derivatization of the metabolites. Samples were first incubated with 50 μL of 2% methoxy-amine chloride in pyridine for 1.5 h at 60°C. Next, 50 μL of […] was added and the samples were incubated again for 1 h at 60°C. A total of 80 μL of derivatized samples were transferred to glass vials for GC–MS/MS analysis ([Chen et al., 2016a]). Pooled rat plasma from different plasma samples was used as QC and distilled water as blank samples. Two pooled plasma samples were injected before the first study sample and three pooled plasma samples were injected after every six study samples which serve as QC. The blank samples were injected at the beginning, at the middle, and at the end of the sample batch ([Phua et al., 2015]; [Chen et al., 2016a]).
GC–MS/MS analysis was performed using a Shimadzu TQ8040 gas chromatography-triple quadrupole mass spectrometer (Shimadzu Corporation, Japan). The GC injector port was set at 250°C and injection volume was 1 μL with a spilt ratio of 1:10. Chromatographic separation was achieved by a capillary column (BPX-5, 30 m × 0.25 mm × 0.25 μm, SGE Analytical Science, Australia) through constant helium carrier gas flow at 1.14 mL/min. The oven temperature was first held at 60°C for 2 min, followed by increasing temperature ramp of 15°C/min to 330°C, and then held at 330°C for 3 min. The interface and ion source were set at 280 and 200°C, respectively. The mass spectrometer was operated in the MRM mode.
The Shimadzu Smart Metabolites Database (Shimadzu Corporation, Japan) which contains a panel of 475 different endogenous metabolites was applied to identify the metabolites in rat plasma samples in this widely targeted metabolomics analysis. This database contains the retention indices and two MRM transitions of each of the 475 endogenous metabolites which facilitate simple, fast, and reliable metabolite identification and semi-quantification. This strategy has been successfully applied to many studies ([Hashimoto et al., 2017]; [Nishiumi et al., 2017]; [Tomonaga et al., 2018]). […]

[3] = Stock solution stability of isorhapontigenin; assay type: physicochemical; conditions: 24 °C, 10 days; stock solution in DMSO
Method: Stock solutions of ISO were prepared by dissolution in DMSO and they were stored at room temperature. The stock solutions were further diluted using blank rat plasma to prepare the calibration standards and QC samples. The stock solution of IS was dissolved in acetonitrile to a concentration of 10 μg/mL. 100 μL IS solution was aliquoted into 1.5-mL polypropylene tubes for storage at −80°C. During sample preparation, this solution was further diluted to the working concentration of 10 ng/mL using acetonitrile containing 0.18 μM of disodium EDTA and stored at 4°C.
The dilution integrity was confirmed using a dilution factor of 20. In the presence of L-ascorbic acid (0.8 mg/mL), ISO appeared to stable in plasma; similarly, addition of EDTA in IS acetonitrile solution (0.18 μM) enhanced the post-preparative stability. The details in accuracy, precision, stability, and matrix effect can be found in Supplementary Tables S1–S3.

With `COc1cc(/C=C/c2cc(O)cc(O)c2)ccc1O` [isorhapontigenin, trans-3,5,4′-trihydroxy-3′-methoxystilbene] the “body weights, vehicle vs ISO treatment group, before and after ISO intervention” value [1] was “remained similar”, the “Fold change of plasma 2-Aminoisobutyric acid” value [2] was 1.351 and the “Fold change of plasma 4-Hydroxyproline” value [2] was 0.564. The “Fold change of plasma Acetylglycine” value [2] was 0.508, the “Fold change of plasma Allantoin” value [2] was 0.545 and the “Fold change of plasma Arachidonic acid” value [2] was 0.789. For the same compound, the “Fold change of plasma Aspartic acid” value [2] was 0.475, the “Fold change of plasma Cadaverine” value [2] was 0.54 and the “Fold change of plasma Catechol” value [2] was 1.411. For the same compound, the “Fold change of plasma Cholesterol” value [2] was 0.789, the “Fold change of plasma Eicosapentaenoic acid” value [2] was 0.762 and the “Fold change of plasma Fructose” value [2] was 0.608. The “Fold change of plasma Glycerol 2-phosphate” value [2] was 0.73, the “Fold change of plasma Glycyl-glycine” value [2] was 0.648 and the “Fold change of plasma Linoleic acid” value [2] was 0.82. The “Fold change of plasma N-Acetyl-ornithine” value [2] was 0.474, the “Fold change of plasma N-Acetylglutamine” value [2] was 0.804 and the “Fold change of plasma Psicose” value [2] was 0.709. For the same compound, the “Fold change of plasma Sorbose” value [2] was 0.698, the “Fold change of plasma Tagatose” value [2] was 0.705 and the “Fold change of plasma Thymine” value [2] was 1.198. For the same compound, the “Fold change of plasma Tryptamine” value [2] was 1.469, the “effect on plasma glucose levels” value ([2]; no food restriction) was “did not change glucose levels” and the “Stock solution stability (% remaining)” value [3] was 96.7 ± 3.0 % remaining.
